By MBC is commonly meant the lowest tested concentration that kills the bacteria rather than only halting them.

SMILES strings stand for the structures. ≈ marks a conversion by molar mass, not a printed value. Read-outs that look alike come from different tables or passages of the source.

The source of these data is patent US10155021B2, “Antimicrobial 4-oxoquinolizines” (Emergent Product Development Gaithersburg Inc., priority 2011, dated 2018).

In experiment [1] the test system is A. baumannii A387. Kind of experiment: Preliminary MBC without and with sub-inhibitory polymyxin B (Example 4). In kind it is cell-based, Acinetobacter baumannii. To be noted: Acinetobacter baumannii, A387, A. baumannii A387, without polymyxin B, 2nd experiment, read-out: MBC without PB.
In experiment [2] the test system is A. baumannii ATCC 19606. Described as above. Format: cell-based, Acinetobacter baumannii. The settings on record: Acinetobacter baumannii, ATCC19606, A. baumannii ATCC 19606, without polymyxin B, preliminary MBC, read-out: MBC without PB.
The test system of experiment [3] is A. baumannii A489. The experiment is described as follows: MIC determination for Acinetobacter strains (Example 3). To be noted: LEV R, CIP R, MRP R, IMP R, AMK R, TET R. Format: cell-based.
The subject of the next experiment is B. thailandensis. Kind of experiment: microbe, parasite or virus in culture. In kind it is cell-based, Burkholderia thailandensis. To be noted: for MIC90: Burkholderia thailandensis, read-out: MIC90 B. thailandensis; for Dilutions improvement shift on B. thailandensis MIC90 (between pH 7 and pH 5): pH 7 versus pH 5.
In another experiment the test system is A. baumannii A472. The experiment is described as follows: MIC determination for Acinetobacter strains (Example 3). In kind it is cell-based. The settings on record: LEV R, CIP R, MRP I, IMP I, AMK R, TET R.
Experiment [4] concerns A. baumannii A390. Kind of experiment: MIC without and with sub-inhibitory polymyxin B (Example 4). Format: cell-based, Acinetobacter baumannii. To be noted: Acinetobacter baumannii, A390, A. baumannii A390, without polymyxin B, read-out: MIC without PB.
The test system of another experiment is A. baumannii A473. The experiment is described as follows: MIC determination for Acinetobacter strains (Example 3). Format: cell-based. To be noted: LEV R, CIP R, MRP R, IMP R, AMK R, TET R.
For another experiment, the system named is A. baumannii J2. The description is as above. In kind it is cell-based. The settings on record: LEV R, CIP R.
Experiment [5] relates to A. baumannii A387. The experiment is described as follows: MIC without and with sub-inhibitory polymyxin B (Example 4). To be noted: Acinetobacter baumannii, A387, A. baumannii A387; without polymyxin B; 2nd experiment; visual reading; read-out: MIC without PB. In kind it is cell-based, Acinetobacter baumannii.
Experiment [6] deals with A. baumannii A489. Kind of experiment: Preliminary MBC without and with sub-inhibitory polymyxin B (Example 4). The settings on record: Acinetobacter baumannii, A489, A. baumannii A489, without polymyxin B, read-out: MBC without PB. Format: cell-based, Acinetobacter baumannii.
The test system of experiment [7] is A. baumannii A390. Kind of experiment: MIC determination for Acinetobacter strains (Example 3). In kind it is cell-based. The settings on record: LEV R, CIP R, MRP R, IPM I, AMK R, TET I.
The subject of the next experiment is A. baumannii A329. Described as above. Format: cell-based. The settings on record: LEV R, CIP R, MRP R, IMP R, AMK R, TET R.
In experiment [8] the test system is A. baumannii ATCC 19606. Described as above. To be noted: ATCC19606, reference strain. Format: cell-based.
The test system of a further experiment is A. Baumanii OXA-51. Kind of experiment: MIC, panel of quinolone-resistant strains (CLSI). The settings on record: Acinetobacter baumannii; CIP R, ESBL. In kind it is cell-based.
For the next experiment, the system named is S. aureus 101. Kind of experiment: MIC, standard panel of Gram-positive and Gram-negative bacteria (CLSI). In kind it is cell-based, Staphylococcus aureus. The settings on record: Staphylococcus aureus, 101; CAMHB; read-out: MIC S. aureus 101.
For a further experiment, the system named is E. coli 25922. The description is as above. To be noted: Escherichia coli, 25922; CAMHB; read-out: MIC E. coli 25922. In kind it is cell-based, Escherichia coli.
Experiment [9] deals with 11 strains of A. baumannii and one strain of Acinetobacter sp. Kind of experiment: Preliminary MBC without and with sub-inhibitory polymyxin B, whole panel (Example 4; also strains not listed separately). In kind it is cell-based. The settings on record: Acinetobacter baumannii, read-out: MBC without PB.
For the next experiment, the system named is S. pneumoniae 1027. Kind of experiment: MIC, panel of quinolone-resistant strains (CLSI). To be noted: Streptococcus pneumoniae, LEV R. Format: cell-based.
Another experiment has as its system E. coli IMP. The experiment is described as follows: microbe, parasite or virus in culture. The settings on record: Escherichia coli, read-out: MIC E. coli IMP.
A further experiment relates to P. aeruginosa 27853. Kind of experiment: MIC, standard panel of Gram-positive and Gram-negative bacteria (CLSI). In kind it is cell-based, Pseudomonas aeruginosa. The settings on record: Pseudomonas aeruginosa, 27853; CAMHB; read-out: MIC P. aeruginosa 27853.
The next experiment concerns S. epidermis 12228. The description is as above. To be noted: Staphylococcus, 12228; CAMHB; read-out: MIC S. epidermis 12228. In kind it is cell-based, Staphylococcus epidermis.
The test system of a further experiment is S. aureus 25923. The experiment is described as above. Format: cell-based, Staphylococcus aureus. To be noted: Staphylococcus aureus, 25923; CAMHB; read-out: MIC S. aureus 25923.
The next experiment has as its system S. aureus 25923 HS. Described as above. In kind it is cell-based. The settings on record: Staphylococcus aureus, CAMHB, HS, read-out: MIC S. aureus 25923 HS.

Turning to `Cc1c(-c2ccc(N)c(F)c2)ccn2c(=O)c(C(=O)O)cc(C3CC3)c12` [Compound 1, 8-(3-fluoro-4-amino-phenyl)-1-cyclopropyl-9-methyl-4-oxo-quinolizine-3-carboxylic acid], the MBC came to 4 µg/mL (≈ 11.4 µM) in the experiment with A. baumannii A387 [1]; 0.25 µg/mL (≈ 0.709 µM) in the experiment with A. baumannii ATCC 19606 [2] (2nd experiment); 0.25 µg/mL (≈ 0.709 µM) in the experiment on A. baumannii ATCC 19606 [2] (1st experiment); 8 µg/mL (≈ 22.7 µM) with A. baumannii A489 [6] (1st experiment); 16 µg/mL (≈ 45.4 µM) with A. baumannii A489 [6] (2nd experiment). The MIC with A. baumannii A489 [3] came out at 4 µg/mL (≈ 11.4 µM); in the experiment with A. baumannii A472, 8 µg/mL (≈ 22.7 µM); with A. baumannii A390 [4] (1st experiment) it was 16 µg/mL (≈ 45.4 µM); in the experiment on A. baumannii A390 [4] (2nd experiment, visual reading), 16 µg/mL (≈ 45.4 µM); in the experiment with A. baumannii A473 it was 4 µg/mL (≈ 11.4 µM); in the experiment with A. baumannii J2, 8 µg/mL (≈ 22.7 µM). Further, the MIC in the experiment with A. baumannii A387 [5] is 4 µg/mL (≈ 11.4 µM); in the experiment on A. baumannii A390 [7], 16 µg/mL (≈ 45.4 µM); in the experiment on A. baumannii A329, 16 µg/mL (≈ 45.4 µM); against A. baumannii ATCC 19606 [8], 0.25 µg/mL (≈ 0.709 µM). Also, in the experiment on B. thailandensis, the MIC90 is less than 0.048 µg/mL. The “Dilutions improvement shift on B. thailandensis MIC90 (between pH 7 and pH 5)” value in the experiment with B. thailandensis is on record as “Yes, 4×”.
On to `Cc1c(-c2ccc(CN)c(F)c2)ccn2c(=O)c(C(=O)O)cc(C3CC3)c12` [Compound 4, 8-(3-fluoro-4-aminomethyl-phenyl)-1-cyclopropyl-9-methyl-4-oxo-quinolizine-3-carboxylic acid], for which the MIC in the experiment with A. Baumanii OXA-51 was 16 µg/mL (≈ 43.7 µM); in the experiment with S. aureus 101 it was 4 µg/mL (≈ 10.9 µM); in the experiment on E. coli 25922, less than 0.03 µg/mL; against S. pneumoniae 1027, 1 µg/mL (≈ 2.73 µM); with A. baumannii A329, 16 µg/mL (≈ 43.7 µM); with E. coli IMP, less than 0.008 µg/mL. The MBC in experiment [9] (A. baumannii A14, without polymyxin B, 1st experiment) is 16 µg/mL (≈ 43.7 µM); in [9] (A. baumannii A14, without polymyxin B, 2nd experiment), more than 32 µg/mL; in [9] (NCTC13301, A. baumannii NCTC 13301, without polymyxin B, 2nd experiment), 32 µg/mL (≈ 87.3 µM); in the experiment with A. baumannii A489 [6] (1st experiment), 4 µg/mL (≈ 10.9 µM); with A. baumannii A489 [6] (2nd experiment), 16 µg/mL (≈ 43.7 µM).
Regarding `Cc1c(-c2ccc(N)cc2)c(F)cn2c(=O)c(C(=O)O)cc(C3CC3)c12` [Compound 7, 8-(4-amino-phenyl)-1-cyclopropyl-7-fluoro-9-methyl-4-oxo-quinolizine-3-carboxylic acid], the MIC was found to be 8 µg/mL (≈ 22.7 µM) against A. Baumanii OXA-51; 1 µg/mL (≈ 2.84 µM) in the experiment with S. aureus 101; 8 µg/mL (≈ 22.7 µM) in the experiment on A. baumannii A489 [3]; 4 µg/mL (≈ 11.4 µM) in the experiment on P. aeruginosa 27853; 4 µg/mL (≈ 11.4 µM) with A. baumannii A472; 8 µg/mL (≈ 22.7 µM) in the experiment on A. baumannii A390 [4] (1st experiment). Moreover, the MIC in the experiment with S. epidermis 12228 is less than 0.008 µg/mL; in the experiment on S. aureus 25923, less than 0.008 µg/mL; in the experiment with S. aureus 25923 HS, 1 µg/mL (≈ 2.84 µM); in the experiment with A. baumannii A473 it was 4 µg/mL (≈ 11.4 µM); against A. baumannii A390 [7] it was 8 µg/mL (≈ 22.7 µM); against S. pneumoniae 1027 it was 4 µg/mL (≈ 11.4 µM). The MIC in the experiment on E. coli IMP is less than 0.008 µg/mL. Besides, the MBC in the experiment on A. baumannii ATCC 19606 [2] (2nd experiment) was 0.25 µg/mL (≈ 0.709 µM); in the experiment with A. baumannii A489 [6] (1st experiment), 4 µg/mL (≈ 11.4 µM). Further, the MIC90 with B. thailandensis was less than 0.048 µg/mL. Besides, the “Dilutions improvement shift on B. thailandensis MIC90 (between pH 7 and pH 5)” value with B. thailandensis is recorded as “Yes, 4×”.
